This is an account of results in article PMC12120630, “Nicotianin-I: A Tobacco Floral Nectar Peptide with Anticandidal Activity” (ACS Omega, 2025).

The subject of one data set is C. albicans (ATCC 10231). The format is cell-based, Candida albicans. The settings on record: ATCC 10231, 24 h. As to the method:
(§1) The anticandidal activity was performed against the following species: C. albicans (ATCC 10231), C. krusei (ATCC 22019), C. parapsilosis (ATCC 6258), and C. tropicalis (INCQS 40042). The cell concentration was standardized by OD600 nm to achieve a concentration of 1.5 × 10^3 CFU/mL. The assays were performed using 96-well microplates, mixing the cell suspensions (100 μL) with 100 μL of each peptide serially diluted (200 to 1.56 μM, final concentrations) in 0.15 M NaCl containing 5% DMSO (dimethyl sulfoxide), which was used as a control. The plates were incubated for 24 h at 37 °C under agitation (150 rpm), and the readings were done at 600 nm using a Microtiter Plate Reader. The results are shown as the percentage of growth, considering the OD600 nm of the control as 100%.

Another data set deals with C. krusei (ATCC 22019). The format is cell-based, Candida krusei. The settings on record: ATCC 22019, 24 h. As to the method:
as §1

For data set [1], the system named is C. parapsilosis (ATCC 6258). The format is cell-based, Candida parapsilosis. The settings on record: ATCC 6258, 24 h. The protocol:
as §1

The subject of data set [2] is C. tropicalis (INCQS 40042). The format is cell-based, Candida tropicalis. The settings on record: INCQS 40042, 24 h. The protocol: as §1
Data set [3] concerns human erythrocyte (type O). The settings on record: 200 μM; 1% human erythrocytes, 1 h, 37 °C, OD414; relative to 0.1% Triton-X-100. As to the method:
To assess a possible indicator of cytotoxicity, 150 μL of nicotianin-I, serially diluted with 0.15 M NaCl containing 5% DMSO, was incubated at 37 °C for 1 h with the same volume of 1% human erythrocyte (type O), which was obtained from the Hematology and Hemotherapy Center of Ceará, Brazil. Samples were centrifuged for 5 min at 2500g, and the supernatant was transferred to 96-well microplates. Released hemoglobin content was measured at OD414 nm. 0.1% Triton-X-100 and 0.15 M NaCl containing 5% DMSO were used as the positive and negative controls, respectively.

Data set [4] concerns Zebrafish embryos (AB wild-type strain). The experiment in a line: Fish Embryo Acute Toxicity (FET) test, OECD 236 adapted for 96-well plate. It is filed as in vivo. The protocol: Zebrafish embryos (AB wild-type strain) with approximately 1 h postfertilization (hpf) were provided by the Production Unit for Alternative Model Organisms (UniPOM), Federal University of Paraiba (UFPB), João Pessoa, Brazil. A day before the experiment, zebrafish adults (male/female ratio of 2:1) were transferred to a 7 L spawning tank with a bottom mesh and a quick-opening valve for embryo collection. Embryos were collected on the day of the experiment and cultured in the adapted embryonic medium E3 (5.0 mM NaCl, 0.17 mM KCl, 0.33 mM CaCl, and 0.33 mM MgSO4) containing 0.005% methylene blue. Only spawnings with a fertilization rate ≥90% were used. Viable embryos (normal cleavage pattern and without morphological changes) were selected using an inverted light microscope (Televal 31, Zeiss, Germany) at 50× magnification. The experiments were approved by the Ethics Committee on the Use of Animals at UFPB, with authorization documented by protocol no. 4460140920.
The Fish Embryo Acute Toxicity (FET test) test was conducted according to OECD’s guideline number 236 adapted for 96-well plate, as described by Muniz et al. Zebrafish embryos with up to 3 hpf were exposed to five concentrations (6.25, 12.5, 25, 50, and 100 μg/mL) of nicotianin-I, with the last concentration being adopted as a limit concentration. Twenty wells were filled with 0.3 mL of E3 medium and 1 embryo. In the same conditions, E3 medium and 0.15 M NaCl containing 5% DMSO were used as controls.
Embryos showing lethality end points (embryo coagulation, lack of somite formation, nondetachment of the tail bud, and lack of heartbeat) were considered dead. This number was used to determine the survival rate % [number of alive organisms/total number of organisms × 100] per tested concentration. The exposures were under static conditions (without renovation of the exposure solution). Observations were performed using a stereomicroscope at a 50× magnification. After 96 h, the surviving larvae were euthanized with eugenol and properly discarded.

Data set [5] deals with L929 (murine fibroblast) cells. The settings on record: L929, 200 μM.
Method: Cell viability of peptide-treated fibroblast cells was tested by the MTT method. Shortly, L929 cells were trypsinized (trypsin–EDTA solution) and seeded into 96-well plates with DMEM (100 μL) at 1 × 10^5 cells/mL for 48 h, followed by the addition of the same volume of serially diluted nicotianin-I (200–1.56 μM) and negative control (0.15 M NaCl). The images were captured with the aid of an optical microscope coupled with phase contrast (AE200, Motic, Barcelona, CT, ES) under 200× magnification. Finally, 10 μL of 5 mg/mL MTT was added to each well, and the mixture was incubated at 37 °C for 3 h. Formazan was solubilized with DMSO (150 μL), and the OD570 nm was measured in a microplate reader.
Data set [6] relates to C. albicans, C. krusei, C. parapsilosis, and C. tropicalis. The experiment in a line: Anticandidal activity, statements for all strains tested. It is filed as cell-based, Candida spp. The settings on record: peptide 200 to 1.56 μM, 24 h, 37 °C. As to the method: as §1
The next data set relates to C. albicans. The following applies: cited from earlier work.
The next data set concerns C. parapsilosis. The arrangement: method as in PMID 35456530. The settings on record: cited from earlier work.
A further data set deals with zebrafish embryos. The following applies: cited from earlier work.

Values after ≈ are worked out from the molar mass of the structure shown. Values joined by “and” are separate entries in the source; they are usually repeats but may differ in a detail not shown here. Identical values can stand only once. Residues, ends and D or L forms follow the SMILES beside them.

In the case of `CC(C)C[C@H](NC(=O)[C@H](CS)NC(=O)[C@H](Cc1ccc(O)cc1)NC(=O)CNC(=O)[C@H](Cc1c[nH]cn1)NC(=O)[C@H](CCCNC(=N)N)NC(=O)[C@@H](NC(=O)[C@H](CS)NC(=O)[C@H](CO)NC(=O)[C@H](Cc1ccc(O)cc1)NC(=O)[C@H](Cc1c[nH]cn1)NC(=O)[C@@H](N)CCCCN)[C@@H](C)O)C(=O)N[C@@H](C)C(=O)N[C@@H](CS)C(=O)N[C@@H](Cc1ccc(O)cc1)C(=O)N[C@@H](CCCCN)C(=O)N[C@@H](CCCNC(=N)N)C(=O)N[C@@H](Cc1c[nH]c2ccccc12)C(=O)N[C@@H](Cc1ccccc1)C(=O)O` [nicotianin-I] (H-KHYSCTRHGYCLACYKRWF-OH), in the data set with C. albicans (ATCC 10231), the concentration for half-maximal inhibition (IC50) worked out at 80 ± 4.6 µM and the MIC was determined as 120 ± 9.3 µM (≈ 291 µg/mL). In the data set with C. krusei (ATCC 22019), the midpoint of inhibition, the IC50, lay at 57 ± 3.7 µM and the MIC stood at 133 ± 8.6 µM (≈ 322 µg/mL). For the same compound, in data set [1], the IC50 was determined as 46 ± 2.2 µM and the MIC came out at 141 ± 7.1 µM (≈ 342 µg/mL). In data set [2], the concentration for half-maximal inhibition (IC50) stood at 24 ± 1.9 µM and the minimal inhibitory concentration (MIC) is 86 ± 3.6 µM (≈ 208 µg/mL). In addition, the “maximum percentage of hemolysis” value in data set [3] came to 28.1%. Moreover, the survival rate in [4] (50 μg/mL (21 μM), 96 h exposure, static, 20 embryos per concentration) was determined as 90%. The mortality rate in data set [4] (100 μg/mL or 42 μM (highest concentration), as stated in the abstract) came to 40%. Besides, in data set [4] (6.25–100 μg/mL, 96 h), the blood clotting result was “n.e. (n.e.: no effect or less than 20% of embryos affected)”, the body pigmentation entry is listed as “n.e. (n.e.: no effect or less than 20% of embryos affected)”, the eye malformation entry is “n.e. ^b (n.e.: no effect or less than 20% of embryos affected)” and the “granules around the embryo (LOAEL)” value came out at 100 µg/mL. In data set [4] (6.25–100 μg/mL, 96 h), the “hatching delay (LOAEL)” value was 100 µg/mL, the mouth malformation entry was “n.e. (n.e.: no effect or less than 20% of embryos affected)”, the otolith malformation entry is given as “n.e. (n.e.: no effect or less than 20% of embryos affected)” and the pericardial edema entry is “n.e”. Also, in [4] (6.25–100 μg/mL, 96 h), the spine malformation result is reported as “n.e. (n.e.: no effect or less than 20% of embryos affected)”, the undersize entry is on record as “n.e. (n.e.: no effect or less than 20% of embryos affected)” and the yolk sac edema result is on record as “n.e. (n.e.: no effect or less than 20% of embryos affected)”. In [4] (nonlethal effects: hatching delay, granules around the embryo), the “lowest observed adverse effect level (LOAEL)” value is 100 µg/mL. The “LC50 (mortality)” value in [4] (zebrafish embryos, 96 h exposure) is 131 µg/mL and 131.85 µg/mL. For the same compound, the LC50 in data set [4] (zebrafish embryos, 96 h exposure, same value given in μM) came out at 54 µM. Moreover, the “cytotoxicity to fibroblasts, in words” value in [5] (MTT and phase contrast microscopy) is “no cytotoxicity”.
Take “EYCSAKSAKPGVHCRSCALVNMYK [Pep2, ornamental tobacco floral nectar peptide […]]”: the “in vitro antifungal activity (growth inhibition), in words” value in data set [6] was “negligible or no significant inhibition”.
As to `C[C@@H]1[C@H](O)[C@@H](C)/C=C/C=C/CC/C=C/C=C/C=C/C=C/C(O[C@H]2O[C@H](C)[C@@H](O)[C@H](N)[C@@H]2O)CC2O[C@](O)(CC(O)C(O)CCC(O)CC(O)CC(O)CC(=O)O[C@H]1C)CC(O)C2C(=O)O` (some centres unmarked) [nystatin], the MIC in the data set with C. albicans and with C. parapsilosis was 1 µg/mL (≈ 1.08 µM) in each case. Further, the LC50 with zebrafish embryos (zebrafish embryos at 120 h postfertilization) was 6.2 µg/mL (≈ 6.69 µM). Further, in the data set with zebrafish embryos (zebrafish embryos, Nys 3 × MIC, AmB 3.2 × MIC), the “exposure concentration causing cardiac abnormalities (pericardial edema, reduced heartbeat)” value is 3 µg/mL.
For “HRFSYMCFVAQVLNKDYCSCCKF [Pep5, ornamental tobacco floral nectar peptide […]]”, the “in vitro antifungal activity (growth inhibition), in words” value in [6] is “negligible or no significant inhibition”.
Turning to `C[C@@H]1[C@H](O)[C@@H](C)/C=C/C=C/C=C/C=C/C=C/C=C/C=C/[C@H](O[C@@H]2O[C@H](C)[C@@H](O)[C@H](N)[C@@H]2O)C[C@@H]2O[C@](O)(C[C@@H](O)C[C@@H](O)[C@H](O)CC[C@@H](O)C[C@@H](O)CC(=O)O[C@H]1C)C[C@H](O)[C@H]2C(=O)O` [Amphotericin B], the MIC with C. albicans and in the data set with C. parapsilosis was 0.25 µg/mL (≈ 0.271 µM) each time.
In the case of “WKCGSTPAPRKYCTCVAKMW [Pep4, ornamental tobacco floral nectar peptide […]]”, the “in vitro antifungal activity (growth inhibition), in words” value in data set [6] was “negligible or no significant inhibition”.
As for `CC(C)[C@H](N)C(=O)N[C@@H](CS)C(=O)N1CCC[C@H]1C(=O)N[C@@H](CS)C(=O)N[C@@H](C)C(=O)N[C@@H](CS)C(=O)N[C@@H](CS)C(=O)N[C@@H](CO)C(=O)N[C@H](C(=O)N1CCC[C@H]1C(=O)N[C@@H](CCCNC(=N)N)C(=O)N[C@@H](CCCNC(=N)N)C(=O)N[C@H](C(=O)O)C(C)C)[C@@H](C)O` [Pep1] (H-VCPCACCSTPRRV-OH; N-terminus and C-terminus assumed), in data set [6], the “in vitro antifungal activity (growth inhibition), in words” value is “negligible or no significant inhibition”. Moreover, in data set [5] (MTT, OD570), the “reduction of cellular viability (up to)” value was 80.95%.
Take “LHSGEGSTCYFFKTNPCCCGTWNCT [Pep3, ornamental tobacco floral nectar peptide […]]”: the “in vitro antifungal activity (growth inhibition), in words” value in [6] is listed as “negligible or no significant inhibition”.
